From patent publication US8071533B2, “Compositions and methods for modulating store-operated calcium entry” (University of Medicine and Dentistry of New Jersey, priority 2006, dated 2011)

How the values were obtained:
[1] = tested on: SOCE in C2C12 myotubes; assay: SOCE by Mn quenching of Fura-2 in C2C12 myotubes; format: cell-based, mouse
Description: HEPM cells were loaded with 10 μM Fura-2 AM (Invitrogen, Carlsbad, Calif.) for 45 min at 37° C. and allowed to de-esterify for 15 min at 25° C. Cells were then harvested and re-suspended in balanced salt solution (BSS) containing (in mM): 140 NaCl, 2.8 KCl, 2 CaCl2, 2 MgCl2, 10 HEPES, pH 7.2. 2.5×10^6 cells were transferred into the cuvette system of a PTI spectrofluorometer (Photon Technology International, Princeton, N.J.) and the changes in [Ca]i were measured as changes in the ratio of Fura-2 fluorescence at excitation wavelength of 350 nm (F350) and 380 nm (F380), following exposure to various concentrations of thapsigargin, ionomycin or caffeine and ryanodine (C/R). For measurement in 0.5 mM EGTA, cells were centrifuged and re-suspended in BSS without CaCl2, and 0.5 mM EGTA was added immediately before recordings. […] All experiments were conducted at 25±2° C.
(§1) Manganese (Mn^2+) is known to be able to permeate into cells via store-operated Ca channels (SOCs), but is impervious to surface membrane extrusion processes or SR uptake by Ca pumps. […] Briefly, to measure the Mn^2+ influx rate through the SOC machinery, thapsigargin (TG), or C/R, was applied to cultured cells or C2C12 myotubes to induce SR Ca depletion in 0 mM extracellular CaCa ([CaCa]o), then 0.5 mM Mn^2+ was added to the extracellular solution. The quenching of Fura-2 fluorescence by Mn^2+ was measured at the Ca-independent excitation wavelength of Fura-2 (360 nm). The decay of Fura-2 fluorescence upon Mn^2+ addition was expressed as percent decrease in Fura-2 fluorescence per unit time (the initial fluorescence is set equal to 100%). For all measurements of SOCE by Mn^2+ quenching, the maximally quenched fluorescence signal was established at the end of the experiment by lysing the cells with 1% Triton, and set equal to 0% fluorescence.

[2] = tested on: SOCE in NRP-154 cells; details: 10 μM 2-APB, NRP-Con and NRP-Bax cells, TG-depleted
Description: The role of SOCE in Ca signaling in NRP-154 cells was examined. […] Following ER Ca depletion (200 s treatment), 0.5 mM MnCl2 was added into cuvettes containing 1×10^6 NRP-154 cells loaded with Fura-2. The quenching of Fura-2 fluorescence by the entry of Mn^2+ provided a quantitative assay of SOCE. Specifically, the slope of reduction of Fura-2 fluorescence with time reflected the degree of SOCE activation.

[3] = tested on: human embryonic palatal mesenchymal (HEPM) cells; assay: Intracellular Ca store release in HEPM cells (Fura-2 ratio, PTI cuvette); format: cell-based; details: for Mobilization of Ca from endoplasmic reticulum (ER) stores: HEPM cells loaded with Fura-2
Description: HEPM cells were loaded with 10 μM Fura-2 AM (Invitrogen, Carlsbad, Calif.) for 45 min at 37° C. and allowed to de-esterify for 15 min at 25° C. Cells were then harvested and re-suspended in balanced salt solution (BSS) containing (in mM): 140 NaCl, 2.8 KCl, 2 CaCl2, 2 MgCl2, 10 HEPES, pH 7.2. 2.5×10^6 cells were transferred into the cuvette system of a PTI spectrofluorometer (Photon Technology International, Princeton, N.J.) and the changes in [Ca]i were measured as changes in the ratio of Fura-2 fluorescence at excitation wavelength of 350 nm (F350) and 380 nm (F380), following exposure to various concentrations of thapsigargin, ionomycin or caffeine and ryanodine (C/R). For measurement in 0.5 mM EGTA, cells were centrifuged and re-suspended in BSS without CaCl2, and 0.5 mM EGTA was added immediately before recordings. Measurement of Ca in individual C2C12 myotubes were performed as described before (Shin, D. W. et al. 2003. J. Biol. Chem. 278:3286-3292). All experiments were conducted at 25±2° C.

[4] = tested on: SOCE in HEPM cells; assay: SOCE by Mn quenching of Fura-2 in HEPM cells; format: cell-based, human
Description: as §1

[5] = biological target: T1, Orai1 (Homo sapiens, UniProt Q96D31); assay: Co-immunoprecipitation of P311 with Orai1 in CHO cell lysates; format: binding; details: CHO lysates expressing GFP-myc-Orai1; anti-myc and anti-P311
T1 construct: expressed in transfected cells; host or cells: CHO cells (transient transfection, lysate 36 h after transfection)
Description: (§2) Next, the interaction of P311 with SOCE molecular machinery was examined experimentally. The interaction of P311 with known components of SOCE, such as STIM1 and Orai1, was studied. A GFP-myc-Orai1 plasmid and the mammalian expression plasmid containing the human STIM1 cDNA (OriGene, Inc.) were used. The plasmids were transfected into CHO cells and 36 hours after transfection, total cell lysates from CHO cells transiently expressing GFP-myc-Orai1 were incubated with either a polyclonal antibody against P311, or an anti-myc monoclonal antibody, with normal rabbit IgG serving as the control. […] Similar results were obtained when co-IP assays were repeated using reversible cross-linker DSP and different detergents in cell lysis buffer, including Triton X-100, NP-40 and CHAPS.

[6] = biological target: T2, STIM1 (Homo sapiens, UniProt Q13586); assay: Co-immunoprecipitation of P311 with STIM1 in CHO cell lysates; format: binding; details: anti-P311 and anti-STIM1
T2 construct: host or cells: CHO cells (transient transfection)
Description: as §2

[7] = Solubility of recombinant P311 expressed in E. coli; format: physicochemical; details: E. coli lysate, a portion of the overexpressed protein
Description: Using standard recombinant DNA technology, the full-length P311 protein was cloned into a T7-based expression plasmid with a 6× His-tag at either the amino-terminus (pET15b, Novagen) or the carboxy-terminus (pET21b, Novagen) and as a fusion protein with glutathione S-transferase (GST) in plasmid pGEX-2T (Pharmacia). In addition, the untagged P311 was cloned into a T7-based bacterial expression vector pG5 (Alexander, P. et al. 1992. Biochemistry 31:3597-3603). The bacterial host is grown for 12-14 hours at room temperature or for 4 hours at 37° C. after induction with 0.2 mM IPTG. Robust expression for the amino-terminal His6-tagged P311 protein […] was observed; the amino-terminal His6-tagged P311 protein was soluble. The soluble fraction of the His6-tagged P311 protein in the E. coli lysate was purified over a Ni-NTA agarose column. The protein was eluted by 250 mM immidazole and further purified by […] chromatography (Source-15S, Pharmacia) and gel-filtration chromatography (Superdex-200, Pharmacia). The P311 protein was purified to greater than 80% homogeneity as judged on SDS-PAGE. The concentration of P311 was determined by spectroscopic measurement at 280 nm.

T2 sequence (Q13586 23-685): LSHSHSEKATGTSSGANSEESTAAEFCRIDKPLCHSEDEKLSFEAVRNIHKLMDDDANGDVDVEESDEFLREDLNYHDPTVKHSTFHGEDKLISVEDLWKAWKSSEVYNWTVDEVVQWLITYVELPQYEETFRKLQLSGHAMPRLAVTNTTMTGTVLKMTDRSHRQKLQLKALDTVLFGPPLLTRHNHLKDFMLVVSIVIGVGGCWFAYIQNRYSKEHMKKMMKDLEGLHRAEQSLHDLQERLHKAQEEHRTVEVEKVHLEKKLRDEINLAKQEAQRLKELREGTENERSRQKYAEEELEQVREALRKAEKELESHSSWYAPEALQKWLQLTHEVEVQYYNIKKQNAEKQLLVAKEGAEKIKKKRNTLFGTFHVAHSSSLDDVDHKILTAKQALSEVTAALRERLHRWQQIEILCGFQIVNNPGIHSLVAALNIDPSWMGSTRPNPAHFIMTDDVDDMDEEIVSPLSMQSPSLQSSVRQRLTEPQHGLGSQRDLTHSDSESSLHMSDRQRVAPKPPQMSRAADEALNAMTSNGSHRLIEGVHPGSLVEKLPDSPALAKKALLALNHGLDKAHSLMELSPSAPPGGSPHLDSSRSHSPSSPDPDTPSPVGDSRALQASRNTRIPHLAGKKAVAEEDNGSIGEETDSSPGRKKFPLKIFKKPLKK
T1 sequence (Q96D31 whole entry, species assumed): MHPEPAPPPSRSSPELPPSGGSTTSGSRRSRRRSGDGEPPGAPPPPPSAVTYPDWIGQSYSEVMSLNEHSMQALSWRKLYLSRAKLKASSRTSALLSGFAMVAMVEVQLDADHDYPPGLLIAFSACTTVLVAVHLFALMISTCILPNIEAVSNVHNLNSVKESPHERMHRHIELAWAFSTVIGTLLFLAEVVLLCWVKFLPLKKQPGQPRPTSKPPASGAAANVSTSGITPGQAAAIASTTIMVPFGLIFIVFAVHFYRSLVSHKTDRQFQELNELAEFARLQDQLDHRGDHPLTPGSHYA

Molecule: NCCOB(c1ccccc1)c1ccccc1 [2-APB, 2-aminoethoxydiphenyl borate]
- Effect on PTZ-triggered Mn quenching of Fura-2 fluorescence ([1]; C2C12 myotubes): inhibited
- Effect on TG-initiated Mn entry through SOCE ([1]; C2C12 myotubes, 2-APB 20 μM): blocked
- Effect on SOCE (Mn quenching of Fura-2) [2]: inhibited SOCE

Molecule: Nc1ncnc2c1ncn2[C@@H]1O[C@H](COP(=O)(O)OP(=O)(O)OP(=O)(O)O)[C@@H](O)[C@H]1O [ATP, adenosine triphosphate]
- Ca release on ATP stimulation in LPS-treated cells ([3]; ATP 1 or 3 mM, LPS-treated HEPM cells): no effect
- Mobilization of Ca from endoplasmic reticulum (ER) stores [3]: not responsive

Molecule: C1CCc2nnnn2CC1 [PTZ, pentylenetetrazol]
- Effect on SOCE in shRNA-treated myotubes ([1]; C2C12 myotubes transfected with shRNA against P311): absent
- SR Ca filling status ([1]; C2C12 myotubes treated with PTZ): without affecting the SR Ca filling status
- Activation of SOCE (Mn entry) ([1]; C2C12 myotubes, 20 mM PTZ, no SR Ca depletion): induced the activation of SOCE

Molecule: C[C@H](CCC(=O)O)C[C@H](C)C[C@H](C)C(=O)/C=C(\O)[C@H](C)C[C@H](C)C/C=C/[C@@H](C)[C@@H](O)[C@@H](C)[C@@H](O)C[C@@H]1CC[C@@](C)([C@H]2CC[C@@](C)([C@@H](C)O)O2)O1 [ionomycin]
- Activation of SOCE following Ca store depletion [4]: rapid activation of SOCE
- Mobilization of Ca from endoplasmic reticulum (ER) stores [3]: reveals a large store of Ca available for release

Molecule: [K+] [potassium]
- Mobilization of Ca from endoplasmic reticulum (ER) stores [3]: not responsive

Molecule: C/C=C(/C)C(=O)O[C@H]1C(C)=C2[C@H]([C@@H]1OC(=O)CCCCCCC)[C@@](C)(OC(C)=O)C[C@H](OC(=O)CCC)[C@@]1(O)[C@H]2OC(=O)[C@@]1(C)O [thapsigargin]
- Activation of SOCE following Ca store depletion [4]: rapid activation of SOCE

B1: P311: 68 amino acid, 8 kDa cytosolic protein (SEQ ID NO: 1 human, SEQ ID NO: 10 mouse) regulating SOCE (protein)
chain: MVYYPGLLVWVSQEPFLYKEMEGSLTKGRLPVPKEVNRKKLEEARAASMTPPGSHELCFPNISYL
- Co-immunoprecipitation with Orai1 [5]: physical interaction between P311 and Orai1
- Co-immunoprecipitation with STIM1 [6]: could not immunoprecipitation

B2: His6-tagged P311: full-length P311 with amino-terminal 6x His-tag expressed in E. coli (protein, UniProt Q16612 1-68, looked up)
chain: MVYYPELFVWVSQEPFPNKDMEGRLPKGRLPVPKEVNRKKNDETNAASLTPLGSSELRSPRISYLHFF
modifications: full-length N-terminal His6 tag
notes: full-length P311 with amino-terminal 6x His-tag expressed in E. coli
- Solubility of overexpressed protein [7]: soluble
